Target: ATR kinase (Homo sapiens (Human), UniProt Q13535)
Assay: ATR Inhibition Assay (radioactive-phosphate incorporation)
Format: biochemical
Details: Ki(app); 5 nM full-length ATR, 10 μM [γ-33P]ATP, 800 μM target peptide, 25° C.
Procedure: Compounds were screened for their ability to inhibit ATR kinase using a radioactive-phosphate incorporation assay. Assays were carried out in a mixture of 50 mM Tris/HCl (pH 7.5), 10 mM MgCl2 and 1 mM DTT. Final substrate concentrations were 10 μM [γ-33P]ATP (3mCi 33P ATP/mmol ATP, Perkin Elmer) and 800 μM target peptide (ASELPASQPQPFSAKKK).
Assays were carried out at 25° C. in the presence of 5 nM full-length ATR. An assay stock buffer solution was prepared containing all of the reagents listed above, with the exception of ATP and the test compound of interest. 13.5 μL of the stock solution was placed in a 96 well plate followed by addition of 2 μL of DMSO stock containing serial dilutions of the test compound (typically starting from a final concentration of 15 μM with 3-fold serial dilutions) in duplicate (final DMSO concentration 7%). The plate was pre-incubated for 10 minutes at 25° C. and the reaction initiated by addition of 15 μL [γ-33P]ATP (final concentration 10 μM).
The reaction was stopped after […] by the addition of 30 μL 0.1M phosphoric acid containing 2 mM ATP. […]
After removing mean background values for all of the data points, Ki(app) data were calculated from non-linear regression analysis of the initial rate data using the Prism software package (GraphPad Prism version 3.0cx for Macintosh, GraphPad Software, San Diego, Calif., USA).

ATR kinase, sequence (Q13535 whole entry): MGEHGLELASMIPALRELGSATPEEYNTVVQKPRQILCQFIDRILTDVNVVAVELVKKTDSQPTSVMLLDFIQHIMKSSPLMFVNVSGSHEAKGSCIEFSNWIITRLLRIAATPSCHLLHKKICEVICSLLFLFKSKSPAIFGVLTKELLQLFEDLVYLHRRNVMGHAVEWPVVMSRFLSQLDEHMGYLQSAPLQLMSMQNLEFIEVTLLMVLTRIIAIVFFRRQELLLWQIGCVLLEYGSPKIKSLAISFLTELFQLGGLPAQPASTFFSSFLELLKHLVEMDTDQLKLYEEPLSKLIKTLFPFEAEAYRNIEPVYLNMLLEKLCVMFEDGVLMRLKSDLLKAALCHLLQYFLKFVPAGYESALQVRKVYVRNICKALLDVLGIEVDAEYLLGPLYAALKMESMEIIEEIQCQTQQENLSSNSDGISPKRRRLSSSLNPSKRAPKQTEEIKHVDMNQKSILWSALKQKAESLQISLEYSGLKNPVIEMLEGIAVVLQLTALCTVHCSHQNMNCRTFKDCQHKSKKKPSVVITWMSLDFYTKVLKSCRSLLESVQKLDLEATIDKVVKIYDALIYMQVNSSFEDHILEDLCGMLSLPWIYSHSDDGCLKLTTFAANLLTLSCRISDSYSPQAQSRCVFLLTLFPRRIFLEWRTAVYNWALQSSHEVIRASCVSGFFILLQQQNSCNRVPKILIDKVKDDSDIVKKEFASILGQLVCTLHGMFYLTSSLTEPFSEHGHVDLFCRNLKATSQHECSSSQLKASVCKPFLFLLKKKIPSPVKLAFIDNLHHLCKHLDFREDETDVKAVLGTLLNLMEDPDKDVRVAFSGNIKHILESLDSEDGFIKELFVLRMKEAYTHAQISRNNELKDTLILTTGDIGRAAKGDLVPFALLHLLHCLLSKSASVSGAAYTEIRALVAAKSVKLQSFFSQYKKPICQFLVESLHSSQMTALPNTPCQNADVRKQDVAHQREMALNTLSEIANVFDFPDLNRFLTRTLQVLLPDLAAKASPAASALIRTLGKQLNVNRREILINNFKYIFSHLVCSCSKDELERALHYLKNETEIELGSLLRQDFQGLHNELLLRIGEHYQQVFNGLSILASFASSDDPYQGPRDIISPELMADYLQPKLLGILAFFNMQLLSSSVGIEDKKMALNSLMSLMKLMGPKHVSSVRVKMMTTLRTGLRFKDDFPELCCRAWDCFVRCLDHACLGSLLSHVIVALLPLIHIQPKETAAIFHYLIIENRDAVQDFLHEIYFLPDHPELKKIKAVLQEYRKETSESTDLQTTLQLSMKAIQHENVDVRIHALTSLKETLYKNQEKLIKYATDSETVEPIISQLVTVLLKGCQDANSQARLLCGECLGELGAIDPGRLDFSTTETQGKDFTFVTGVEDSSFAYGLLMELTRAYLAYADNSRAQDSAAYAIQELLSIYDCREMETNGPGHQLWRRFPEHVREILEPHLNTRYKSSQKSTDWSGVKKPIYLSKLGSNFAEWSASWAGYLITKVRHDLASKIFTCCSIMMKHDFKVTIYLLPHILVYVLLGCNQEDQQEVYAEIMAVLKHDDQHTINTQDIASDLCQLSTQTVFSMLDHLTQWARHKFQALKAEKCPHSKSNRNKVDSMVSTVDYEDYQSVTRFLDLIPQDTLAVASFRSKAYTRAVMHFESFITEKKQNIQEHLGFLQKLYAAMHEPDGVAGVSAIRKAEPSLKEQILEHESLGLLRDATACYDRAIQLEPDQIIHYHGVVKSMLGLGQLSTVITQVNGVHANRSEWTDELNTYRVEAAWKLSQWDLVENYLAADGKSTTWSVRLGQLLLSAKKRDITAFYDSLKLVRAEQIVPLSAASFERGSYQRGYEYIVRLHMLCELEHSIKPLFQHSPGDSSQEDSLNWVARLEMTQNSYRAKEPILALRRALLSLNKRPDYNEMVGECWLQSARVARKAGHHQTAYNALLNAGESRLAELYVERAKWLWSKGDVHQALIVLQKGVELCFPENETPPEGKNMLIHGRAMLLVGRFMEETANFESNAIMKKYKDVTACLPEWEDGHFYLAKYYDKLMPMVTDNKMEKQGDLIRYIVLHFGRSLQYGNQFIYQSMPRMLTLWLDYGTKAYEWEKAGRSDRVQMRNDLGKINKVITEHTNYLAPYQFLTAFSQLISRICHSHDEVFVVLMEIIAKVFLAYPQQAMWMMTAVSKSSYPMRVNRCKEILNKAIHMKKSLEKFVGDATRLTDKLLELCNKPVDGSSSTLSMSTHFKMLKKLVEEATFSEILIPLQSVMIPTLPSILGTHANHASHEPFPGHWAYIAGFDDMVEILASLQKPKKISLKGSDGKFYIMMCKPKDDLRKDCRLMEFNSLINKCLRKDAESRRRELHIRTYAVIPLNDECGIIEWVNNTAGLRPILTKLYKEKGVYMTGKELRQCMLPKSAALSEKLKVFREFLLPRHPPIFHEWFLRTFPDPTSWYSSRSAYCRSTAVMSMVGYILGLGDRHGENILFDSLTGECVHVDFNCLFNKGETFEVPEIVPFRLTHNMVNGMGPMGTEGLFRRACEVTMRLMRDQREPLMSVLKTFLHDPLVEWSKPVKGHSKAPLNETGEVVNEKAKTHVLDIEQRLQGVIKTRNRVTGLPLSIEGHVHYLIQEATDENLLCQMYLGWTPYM

CC(C)S(=O)(=O)c1ccc(-c2cnc(N)c(C3CC(c4ccccc4)=NO3)n2)cc1 (stereo not shown) [Compound I-1, 5-(4-(isopropylsulfonyl)phenyl)-3-(3-phenyl-4,5-dihydroisoxazol-5-yl)pyrazin-2-amine] showed a Ki of 0.016 µM.
